# From patent publication US20140275257A1, “N-ACETYL CYSTEINE COMPOSITIONS IN THE TREATMENT OF SYSTEMIC LUPUS ERYTHEMATOSUS” (Foundation for the State University of New York, priority 2013, published 2014)
# Assays:
# mTOR = experiment: CD3/CD28 stimulation-induced mTOR activity in normal PBL pretreated with NAC in vitro; type: cell-based, human; conditions: pretreatment by NAC in vitro (data not shown)
# Description: Δψm is subject to regulation by an oxidation-reduction equilibrium of ROI, pyridine nucleotides (NADH/NAD+NADPH/NADP) and GSH. (Fernandez, D. and Perl, A. “Metabolic control of T cell activation and death in SLE,” Autoimmun. Rev., 8: 184-189 (2009)). Without being bound by theory, it is believed that NAC can modulate mitochondrial hyperpolarization (MHP), directly, via neutralizing ROI or, indirectly, via sparing NADPH and promoting de novo GSH production. […] NAC-induced MHP occurred with a marked increase in NO production, which is required for mitochondrial biogenesis. (Nagy, G. et al., “Nitric Oxide-Dependent Mitochondrial Biogenesis Generates Ca^2+ Signaling Profile of Lupus T Cells,” J. Immunol., 173: 3676-3683 (2004)). In turn, NO production depends on the availability of NADPH. Without being bound by theory, it is believed that increased NO production can result from sparing of NADPH by NAC. (Fernandez, D. and Perl, A. “Metabolic control of T cell activation and death in SLE,” Autoimmun. Rev., 8: 184-189 (2009)). Without being bound by theory, NAC acts by blocking mTOR, which is a sensor of Δψm and oxidative stress in lupus T cells. (Fernandez, D. R. et al., “Activation of mTOR controls the loss of TCRζ □ in lupus T cells through HRES-1/Rab4-regulated lysosomal degradation,” J. Immunol., 182: 2063-2073 (2009)). […]
# SLE patients = experiment: ADHD Self-Report Scale (ASRS) in SLE patients treated with NAC; type: in vivo, human
# Procedure: The clinical trial design, eligibility criteria, randomization, blinding, monitoring of safety, tolerance and efficacy on NAC in patients with SLE was as described in Example 1, approved by the Food and Drug Administration (IND No: 101,320; clinicaltrials.gov identifier: NCT00775476). As an addendum to the Example 1 study, ASRS was evaluated as an exploratory outcome in 24 SLE patients randomized to receive orally either placebo or NAC in one of two treatment arms: 1,200 mg or 2,400 mg twice daily for three months. 12 patients were enrolled per dosing group, 9 received NAC while 3 received placebo. Due to missing data, 6 patients enrolled in the placebo arm and 8 patients enrolled into each of the two NAC treatment arms could be evaluated.
# The ASRS is an 18-item scale that is used to assess the current status of the 18 DSM-IV symptoms of ADHD in adults. (Kessler, R. C. et al., “The World Health Organization Adult ADHD Self-Report Scale (ASRS): a short screening scale for use in the general population,” Psychol. Med., 35(2): 245-256 (2005)). Symptoms are rated on a frequency basis: 0=never, 1=rarely, 2=sometimes, 3=often, and 4=very often. Nine items assess inattention and nine assess hyperactivity-impulsivity. The 9 inattentive symptoms are summed to create the ASRS A subscale; the 9 hyperactive-impulsive symptoms are summed to compute the ASRS B subscale. These two scales are summed to compute the total score. For all scales, higher scores indicate more symptoms. The scale has high concurrent validity with a rater-administered ADHD symptom scale. (Adler, L. A. et al., “Validity of Pilot Adult ADHD Self-Report Scale (ASRS) to Rate Adult ADHD Symptoms,” Ann Clin. Psychiatry 18(3): 145-148 (2006)). As described in Example 1, SLE disease activity was assessed by using the British Isles Lupus Assessment Group (BILAG) (Isenberg, D. A. et al., “BILAG 2004. Development and initial validation of an updated version of the British Isles Lupus Assessment Group's disease activity index for patients with systemic lupus erythematosus,” Rheumatology, 44(7): 902-906 (2005)) and Systemic Lupus Erythematosus Disease Activity Index (SLEDAI) (Hochberg, M. C., “Updating the American College of Rheumatology revised criteria for the classification of systemic lupus erythematosus,” Arth. Rheum., 40(9): 1725 (1997)). Fatigue was estimated using the Fatigue Assessment Scale (FAS) (Michielsen, H. J. et al., “Psychometric qualities of a brief self-rated fatigue measure: The Fatigue Assessment Scale,” J. Psychosom. Res., 54(4): 345-352 (2003)).
# Overall clinical effectiveness of NAC relative to placebo was analyzed with multilevel modeling as implemented in the STATA routine XTMIXED (from StataCorp, College Station, Tex.), with the three nested levels being drug group, subject within drug group and study visit within subject. All models included fixed effects for drug group, study visit and the drug group by study visit interaction along with random intercepts at each design level. […] Two-tailed paired t-test was used to assess the effects of placebo and of each and all NAC doses on clinical indices recorded on visits 2-5 relative to visit 1; p<0.05 was considered significant. Patients and controls were compared with two-tailed unpaired t-test. Correlations and t-test were performed with Prism (GraphPad, San Diego, Calif.).
# DN T cells = experiment: T-cell subset analysis by flow cytometry (DN T cells); type: in vivo, human; conditions: after 3 months; baseline 6.2±0.5%; p=0.043
# Procedure: Unstimulated cells and cells stimulated with CD3/CD28 for 16 h were examined and cell death pathway selection in T cells was measured by concurrent staining with annexin V-Alexa 647 and propidium iodide (PrI) as well as cell type-specific antigens. T-cell subsets were analyzed by staining with antibodies to CD4, CD8, and CD25. B cells were identified by CD 19 staining
# [1] = NAC Dose 3, end of 3-month treatment
structure (smiles),measurement,setting,value
"CC(=O)N[C@@H](CS)C(=O)O [NAC, N-acetyl-L-cysteine]",CD3/CD28 stimulation-induced mTOR activity,mTOR,blocking
same,cognitive/inattentive ASRS A scores,"SLE patients; NAC Dose 2 (2.4 g/day), z=−3.31, p=0.001",reduced
same,hyperactivity/impulsive components of ASRS scores (ASRS B scores),"SLE patients; NAC Dose 2 and 3, alone or combined (data not shown)",not affected
same,ASRS Total scores,"SLE patients; NAC Dose 3 (4.8 g/day), after 2 and 3 months of treatment",diminished
same,cognitive/inattentive ASRS A scores,"SLE patients; NAC Dose 3 (4.8 g/day), z=−4.04, p<0.0001",reduced
same,"standardized mean difference effect size (Cohen's D), ASRS A scores",SLE patients; [1],0.71
same,"standardized mean difference effect size (Cohen's D), ASRS B scores",SLE patients; [1],0.44
same,"standardized mean difference effect size (Cohen's D), ASRS Total scores",SLE patients; [1],0.72
same,ASRS Total scores,"SLE patients; NAC Doses 2 and 3 combined, after 3 months",reduced
same,reduction in ASRS Total scores relative to placebo (multilevel modeling),"SLE patients; NAC Doses 2 and 3 combined, XTMIXED z=−2.09, p=0.037",greater
same,cognitive/inattentive ASRS A scores,"SLE patients; NAC Doses 2 and 3 combined, z=−3.41, p=0.001",reduced
same,DN T-cell frequency,DN T cells,5.3±0.5%
